Measured values taken from US20200247812A1 (Integral Biosciences Private Limited, priority 2018, published 2020).
Counter-ions that a name gives are not always drawn.

Experiments:
[1] = target: T1, ALK 5 (Homo sapiens, UniProt P36897); assay: In vitro kinase assay (ALK5 IC50, LanthaScreen Terbium labeled TR-FRET); assay type: biochemical; settings: TGF-β kinase 6 nM, ATP 10 μM, read-out: Enzyme Activity ALK 5 IC50
T1 sequence (P36897 34-503): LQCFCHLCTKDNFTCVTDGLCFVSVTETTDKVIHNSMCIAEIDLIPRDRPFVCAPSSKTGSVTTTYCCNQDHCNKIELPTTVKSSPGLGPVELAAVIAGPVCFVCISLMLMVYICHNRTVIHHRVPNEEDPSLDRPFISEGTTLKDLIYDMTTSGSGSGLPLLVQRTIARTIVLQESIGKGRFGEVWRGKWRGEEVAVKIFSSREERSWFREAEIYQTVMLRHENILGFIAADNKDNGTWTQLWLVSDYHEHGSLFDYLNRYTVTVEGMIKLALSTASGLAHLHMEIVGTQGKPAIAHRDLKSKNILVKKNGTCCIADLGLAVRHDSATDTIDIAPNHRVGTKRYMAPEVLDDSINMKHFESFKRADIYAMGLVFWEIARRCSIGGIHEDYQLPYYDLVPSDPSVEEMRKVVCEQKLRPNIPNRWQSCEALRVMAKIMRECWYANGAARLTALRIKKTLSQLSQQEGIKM
Summary of the method: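 LanthaScreen Tb TR-FRET: ALK5 (6 nM) preincubated 10 min with 3-fold diluted compounds, then 10 μM ATP and 200 nM fluorescent PolyGT substrate added for 1 h at room temperature. Stopped with EDTA/Tb antibody; 520/495 nm emission read. IC50 from four-parameter fit versus DMSO and no-enzyme controls.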

[2] = tested on: phosphorylation of Smad-2 in THP-1 cells; assay: Inhibition of phosphorylation of Smad-2 in THP-1 cells (Phospho-Smad2 ELISA); assay type: cell-based
[3] = tested on: Panc-10.05; assay: Cell viability assay (resazurin), Panc-10.05; assay type: cell-based; settings: Homo sapiens, Panc1005, 72-144 hr
Procedure: (§1) Different cell lines such as pancreatic, (MIA PaCa-2; ATCC®CRL-1420™ & and Panc-1; CRL-1469™), liver carcinoma (HepG2; ATCC® HB-8065™), lung epithelial carcinoma (A549; ATCC® CCL-185™) and others were seeded in their respective medium (DMEM, Cat #10569044, MEM, Cat #41090036; RPMI, Cat #22400089; all with 10% FBS, Gibco, ThermoFisher) at a cell count of 3000 cells per 100 μl per well in a 96 well edge plate (167425; ThermoFisher). Cells were allowed to grow at 37° C. for 24 hr in 5% CO2 (culture conditions) in a Nuaire incubator (humidified). Serially diluted compounds (100 μl) were added to the culture plate 24 hr later and the cultures were further incubated in culture conditions for specified time depending on doubling time of specific cell line (ranging from 72-144 hr). Experiment was terminated at the completion of incubation time with the drug by replacing the medium with 100 μl of 1 mM of resazurin (R7017; Sigma) prepared in respective culture medium and the plates were further incubated in culture conditions for 4 hr. Fluorescence was then measured using a multimodal plate reader (Biotek Synergy Neo) at an excitation wavelength of 535 nm and emission wavelength of 590 nm to obtain relative fluorescence units. Data analysis was done by subtracting the background fluorescence (only medium blank) value from each reading and then normalizing with the vehicle control (DMSO treated cells) to obtain percent survival/proliferation. Percent survival at different doses was used to calculate IC50 by fitting the curve to the “four-parameter variable slope logistic model” using Prism Graph Pad.

[4] = tested on: HCT116; assay: Cell viability assay (resazurin), HCT116; assay type: cell-based; settings: Homo sapiens, HCT-116, 72-144 hr
Procedure: as §1

[5] = tested on: A427; assay: Cell viability assay (resazurin), A427; assay type: cell-based; settings: Homo sapiens, A-427, 72-144 hr
Procedure: as §1

[6] = tested on: AsPC-1; assay: Cell viability assay (resazurin), AsPC-1; assay type: cell-based; settings: Homo sapiens, ASPC1, 72-144 hr
Procedure: as §1

[7] = tested on: A549; assay: Cell viability assay (resazurin), A549; assay type: cell-based; settings: Homo sapiens, 72-144 hr
Procedure: as §1

[8] = tested on: MCF7; assay: Cell viability assay (resazurin), MCF7; assay type: cell-based; settings: Homo sapiens, 72-144 hr
Procedure: as §1

[9] = tested on: MDA_MB-231; assay: Cell viability assay (resazurin), MDA_MB-231; assay type: cell-based; settings: Homo sapiens, MDA-MB-231, 72-144 hr
Procedure: as §1

[10] = tested on: HepG2; assay: Cell viability assay (resazurin), HepG2; assay type: cell-based; settings: Homo sapiens, 72-144 hr
Procedure: as §1

[11] = tested on: THP1; assay: Cell viability assay (resazurin), THP1; assay type: cell-based; settings: Homo sapiens, THP-1, 72-144 hr
Procedure: as §1

[12] = tested on: human PBMC's; assay: Viability in CD3e/CD28 activated human PBMC's (resazurin); assay type: cell-based; settings: 72 hr
Procedure: IC50 values of compounds for determining viability in CD3e/CD28 activated human PBMC's (hPBMC-34033, Cat # CC-2702; Lonza) cultured in LGM3 medium, Cat # CC #3211; Lonza). Human PBMC's (0.25×10^6 cells/well) were activated with Anti-human CD3e (0.5 μg/ml, coated overnight at 4° C.; Cat #16-0037-81, eBioscience) and then incubated with serial dilutions of compounds (3 fold, 8 point dose response starting at 30 μM) for 30 min at 37° C., 5% CO2 in an incubator (cell culture conditions) prior to treating them with Anti-human CD28 (0.25 μg/ml soluble; Cat #16-0289-81, eBiosciences). Human PBMC's were further incubated under cell culture conditions for 72 hr following which experiment was terminated by replacing the medium with 100 μl of 1 mM of resazurin (R7017; Sigma) prepared in culture medium and the plates were further incubated in culture conditions for 4 hr. Fluorescence was then measured using a multimodal plate reader (Biotek Synergy Neo) at an excitation wavelength of 535 nm and emission wavelength of 590 nm to obtain relative fluorescence units. Data analysis was done by subtracting the background fluorescence (only medium blank) value from each reading and then normalizing with the vehicle control (DMSO treated cells) to obtain percent survival/proliferation. Percent survival at different doses was used to calculate IC50 by fitting the curve to the “four-parameter variable slope logistic model” using Prism Graph Pad.

[13] = tested on: 22Rv1; assay: Cell viability assay (resazurin), 22Rv1; assay type: cell-based; settings: Homo sapiens, 72-144 hr
Procedure: as §1

[14] = tested on: Panc-1; assay: Cell viability assay (resazurin), Panc-1; assay type: cell-based; settings: Homo sapiens, 72-144 hr
Procedure: Different cell lines such as pancreatic, (MIA PaCa-2; ATCC®CRL-1420™ & and Panc-1; CRL-1469™), liver carcinoma (HepG2; ATCC® HB-8065™), lung epithelial carcinoma (A549; ATCC® CCL-185™) and others were seeded in their respective medium (DMEM, Cat #10569044, MEM, Cat #41090036; RPMI, Cat #22400089; all with 10% FBS, Gibco, ThermoFisher) at a cell count of 3000 cells per 100 μl per well in a 96 well edge plate (167425; ThermoFisher). Cells were allowed to grow at 37° C. for 24 hr in 5% CO2 (culture conditions) in a Nuaire incubator (humidified). Serially diluted compounds (100 μl) were added to the culture plate 24 hr later and the cultures were further incubated in culture conditions for specified time depending on doubling time of specific cell line (ranging from 72-144 hr). […] Fluorescence was then measured using a multimodal plate reader (Biotek Synergy Neo) at an excitation wavelength of 535 nm and emission wavelength of 590 nm to obtain relative fluorescence units. Data analysis was done by subtracting the background fluorescence (only medium blank) value from each reading and then normalizing with the vehicle control (DMSO treated cells) to obtain percent survival/proliferation. […]

[15] = tested on: phosphorylation of Smad-2 in THP-1 cells; assay: Inhibition of phosphorylation of Smad-2 in THP-1 cells (Phospho-Smad2 ELISA); assay type: cell-based; settings: 1.5 h, human TGF-β 20 ng/ml, 90 min, read-out: pSmad2 IC50
Procedure: IC50 values of compounds for determining inhibition of phosphorylation of Smad-2 in THP-1 cells (ATCC, Cat # ATCC® TIB-202™) cultured in RPMI medium, (Cat #22400089; with 10% FBS, Gibco, ThermoFisher). THP-1 cells (1.0×10^6 cells/well; 6 well plate) were incubated with serial dilutions of compounds (3 fold, 5 point dose response starting at 10 μM) for 60 min at 37° C., 5% CO2 in an incubator (cell culture conditions) prior to treating them with Recombinant Human TGF-β (20 ng/ml soluble; Cat #100-21, Peprotech) for 90 min. The cells were then pelleted and processed for protein estimation and evaluation of pSmad using ELISA kit from Cell Signaling (PathScan(R) Phospho-Smad2 (Ser465/467) Sandwich ELISA; Cat #7348C) as per manufacturer's protocol. Data analysis was done by subtracting the background absorbance (only negative control) value from each reading and then normalizing with the vehicle control (DMSO treated cells) to obtain percent levels of pSmad-2. Percent inhibition thus obtained (by subtracting expression levels of pSmad from 100) at different doses was used to calculate IC50 by fitting the curve to the “four-parameter variable slope logistic model” using Prism Graph Pad.

[16] = tested on: MV-4-11; assay: Cell viability assay (resazurin), MV-4-11; assay type: cell-based; settings: Homo sapiens, MV4-11, 72-144 hr
Procedure: as §1

| IC50 [1] | IC50 [3] | IC50 [4] | IC50 [6] | IC50 [7] | IC50 [8] | IC50 [10] | IC50 [11] | IC50 [13] | IC50 [14] | IC50 [15] | IC50 [16] | SMILES | % Inhibition of pSmad2 ([2]; 3 μg) | % Inhibition of pSmad2 ([2]; 10 μg) | IC50 [5] | IC50 [9] | IC50 [12] |
| --- | --- | --- | --- | --- | --- | --- | --- | --- | --- | --- | --- | --- | --- | --- | --- | --- | --- |
| ≤ 0.5 µM | – | – | – | – | – | – | – | – | – | – | – | CC(C)c1[nH]c(=O)c(-c2cc(Cl)ccc2F)cc1Nc1ccncc1C(=O)NC[C@H](C)O [Compound 1.5, (S)-4-((5-(5-chloro-2-fluorophenyl)-2-isopropyl-6-oxo-1,6-dihydropyridin-3-yl)amino)-N-(2-hydroxypropyl)nicotinamide] | 47.3% | 53.3% | – | – | – |
| ≤ 0.5 µM | > 30 µM | > 30 µM | > 30 µM | > 30 µM | > 10 µM | – | – | – | – | – | – | CN(C)c1[nH]c(=O)c(-c2cc(Cl)ccc2F)cc1Nc1ccncc1C(N)=O [Compound 1.32, 4-((5-(5-chloro-2-fluorophenyl)-2-(dimethylamino)-6-hydroxypyridin-3-yl)amino)nicotinamide] | 51.3% | 50.5% | > 30 µM | > 30 µM | – |
| ≤ 0.5 µM | 2.21 µM | 2.64 µM | 1.82 µM | 2.77 µM | – | 2.64 µM | 0.635 µM | 1.53 µM | – | – | – | CN(C)c1[nH]c(=O)c(-c2cc(Cl)ccc2F)cc1Nc1ccnc2[nH]ccc12 [Compound 1.12, 5-((1H-pyrrolo[2,3-b]pyridin-4-yl)amino)-3-(5-chloro-2-fluorophenyl)-6-(dimethylamino)pyridin-2-ol hydrochloride] | 51.6% | 48.4% | 3.1 µM | 2.75 µM | 18.2 µM |
| 0.5 to 2 µM | – | > 30 µM | – | – | – | – | – | – | – | – | – | COC(=O)c1cnccc1Nc1cc(-c2cc(Cl)ccc2F)c(=O)[nH]c1N(C)C [Compound 1.29, methyl 4-((5-(5-chloro-2-fluorophenyl)-2-(dimethylamino)-6-hydroxypyridin-3-yl)amino)nicotinate] | – | – | – | – | – |
| ≤ 0.5 µM | 28.5 µM | 13.4 µM | – | 28.5 µM | – | 12.6 µM | 6.09 µM | – | – | – | – | CC(=O)Nc1cc(Nc2cc(-c3cc(Cl)ccc3F)c(=O)[nH]c2N(C)C)ccn1 [Compound 1.40, N-(4-((5-(5-chloro-2-fluorophenyl)-2-(dimethylamino)-6-oxo-1,6-dihydropyridin-3-yl)amino)pyridin-2-yl)acetamide] | – | – | 15.2 µM | 12.6 µM | – |
| ≤ 0.5 µM | – | – | – | > 30 µM | > 10 µM | > 30 µM | – | > 30 µM | > 30 µM | – | – | CC(C)c1[nH]c(=O)c(-c2cc(Cl)ccc2F)cc1Nc1ccncc1C(N)=O [Compound 1.43, 4-((5-(5-chloro-2-fluorophenyl)-2-isopropyl-6-oxo-1,6-dihydropyridin-3-yl)amino)nicotinamide] | – | – | > 30 µM | > 30 µM | > 30 µM |
| ≤ 0.5 µM | – | > 30 µM | > 30 µM | – | > 30 µM | > 30 µM | – | – | – | 1.33 µM | – | CC(C)c1[nH]c(=O)c(-c2cc(Cl)ccc2F)cc1Nc1ccnc2c1CC(=O)N2 [Compound 1.61, 4-((5-(5-chloro-2-fluorophenyl)-2-isopropyl-6-oxo-1,6-dihydropyridin-3-yl)amino)-1,3-dihydro-2H-pyrrolo[2,3-b]pyridin-2-one] | – | – | – | > 30 µM | – |
| ≤ 0.5 µM | – | – | – | – | – | – | – | – | – | – | – | C[C@@H](CO)NC(=O)c1cnccc1Nc1cc(-c2cc(Cl)ccc2F)c(=O)[nH]c1N(C)C [Compound 1.10, (S)-4-((5-(5-chloro-2-fluorophenyl)-2-(dimethylamino)-6-hydroxypyridin-3-yl)amino)-N-(1-hydroxypropan-2-yl)nicotinamide] | 36.7% | 45.1% | – | – | 24.5 µM |
| ≤ 0.5 µM | – | > 30 µM | – | – | > 30 µM | 18.2 µM | > 30 µM | – | – | – | 29.2 µM | CCc1[nH]c(=O)c(-c2cc(Cl)ccc2F)cc1Nc1ccnc(NC(C)=O)c1 [Compound 1.70, N-(4-((5-(5-chloro-2-fluorophenyl)-2-ethyl-6-oxo-1,6-dihydropyridin-3-yl)amino)pyridin-2-yl)acetamide] | – | – | > 30 µM | > 30 µM | – |
| ≤ 0.5 µM | – | > 30 µM | – | – | 18.7 µM | 15.7 µM | 13 µM | – | – | – | 16.3 µM | CC(=O)Nc1cc(Nc2cc(-c3cc(Cl)ccc3F)c(=O)[nH]c2C2CC2)ccn1 [Compound 1.69, N-(4-((5-(5-chloro-2-fluorophenyl)-2-cyclopropyl-6-oxo-1,6-dihydropyridin-3-yl)amino)pyridin-2-yl)acetamide] | – | – | > 30 µM | 15.3 µM | – |
